What was measured:
[1] = Pharmacokinetic interaction between atazanavir and the Compound: EVG/ATV versus EVG/r crossover in healthy subjects; conditions: for half-life: human, plasma
Description: This study evaluated the safety and steady-state pharmacokinetics of the co-administered Compound and ATV.
(§1) Healthy subjects received EVG/r 300/100 mg or EVG/ATV 300/400 mg in a randomized, crossover manner for 10 days each, with the last dose being coadministered with the CYP3A probe substrate midazolam (oral syrup; 5 mg) and pharmacokinetic (PK) sampling performed. […] ATV, midazolam, and ritonavir pharmacokinetics were also determined for descriptive statistics.

[2] = Similar studies of the effect of five protease inhibitors on the pharmacokinetics of the Compound; assay type: in vivo; conditions: protease inhibitors with ritonavir 100 mg QD to 200 mg BID
Description: These studies employed various doses of ritonavir (100 mg QD to 200 mg BID).

[3] = Pharmacokinetic interaction between atazanavir/r and the Compound, steady-state PK in healthy subjects (studies 1 and 2); assay type: in vivo, human; conditions: for AUCtau % GMR (90% CI) / Cmax % GMR (90% CI) / Ctau % GMR (90% CI): coadministration:alone, 14 days
From the text: In study 1, 33/61 and study 2, 19/30 subjects completed each study; discontinuations were mostly for known ATV adverse events.

CYP3A = CYP3A probe substrate midazolam pharmacokinetics with EVG/ATV versus EVG/r; conditions: midazolam oral syrup 5 mg with last dose; EVG/ATV vs. EVG/r
Description: as §1

[4] = ATV 400 mg coadministered with EVG 300 mg
[5] = Study 1, the Compound 200 mg (test and reference) + ATV/r 300/100 mg QD, n=33
[6] = Study 2, the Compound test 85 mg, reference 150 mg, ATV/r 300/100 mg QD, n=20
[7] = EVG/ATV 300/400 mg vs. EVG/r 300/100 mg, 10 days each, n=14

## COC(=O)N[C@H](C(=O)N[C@@H](Cc1ccccc1)[C@@H](O)CN(Cc1ccc(-c2ccccn2)cc1)NC(=O)[C@@H](NC(=O)OC)C(C)(C)C)C(C)(C)C [ATV, 1-[4-(pyridine-2-yl)-phenyl]-4(S)-2,5-bis-[N-(N-methoxycarbonyl-(L)-tert-leucyl)amino]-6-phenyl-2-axahexane, reference compound]
[1]; [4]
  AUCtau and Ctau compared with historical data: lower than historical data
  Mean (% CV) Ctau: 74.5 (45.7%) ng/ml
[2]
  effect on the pharmacokinetics of the Compound: improved pharmacokinetic effect

## COc1cc2c(cc1Cc1cccc(Cl)c1F)c(=O)c(C(=O)O)cn2[C@H](CO)C(C)C [the Compound, 6-(3-chloro-2-fluorobenzyl)-1-[(2S)-1-hydroxy-3-methylbutan-2-yl]-7-methoxy-4-oxo-1,4-dihydroquinoline-3-carboxylic acid]
[3]; 85 mg of the Compound with ritonavir-boosted atazanavir versus 150 mg dose of the Compound alone
  systemic exposure: equivalent
[3]; [5]
  AUCtau % GMR (90% CI): 200%
  Cmax % GMR (90% CI): 185%
  Ctau % GMR (90% CI): 288%
[3]; [6]
  AUCtau % GMR (90% CI): 107%
  Cmax % GMR (90% CI): 90.9%
  Ctau % GMR (90% CI): 138%
[3]; coadministration with ATV/r
  exposures upon coadministration with ATV/r: elevated
[1]; 300 mg of the Compound with atazanavir versus 300 mg with ritonavir
  systemic exposure: equivalent
[1]; [7]
  AUCtau geometric mean ratio (90% CI): 107 (95.6, 119) %
  Cmax geometric mean ratio (90% CI): 108 (99, 119) %
  Ctau geometric mean ratio (90% CI): 89.9 (71.4, 113) %
[1]; EVG/r 300/100 mg or EVG/ATV 300/400 mg, 10 days each, healthy subjects
  adverse events: No grade 4 AE or serious AE were observed
[1]; median T1/2, EVG/ATV 300/400 mg
  half-life: 5.2 h
[1]; median T1/2, EVG/r 300/100 mg
  half-life: 6.3 h

## Cc1ncc2n1-c1ccc(Cl)cc1C(c1ccccc1F)=NC2 [midazolam]
CYP3A
  AUCinf geometric mean ratio (90% CI): 89.5 (80.7, 99.3) %
  Cmax geometric mean ratio (90% CI): 98.8 (89.6, 109) %

Source: patent US20100331331A1, “THERAPEUTIC COMPOSITIONS AND THE USE THEREOF” (priority 2007, published 2010)
